Values quoted from earlier work, collected in US20060280819A1, “Ellagic acid food supplement prepared from pomegranate seed” (priority 2005, published 2006).

Assays:
[1] = tested on: normal healthy cells; details: lab tests
[2] = tested on: cancer cells; details: lab tests
[3] = tested on: breast, pancreas, esophageal, skin, colon and prostate cancer cells
[4] = tested on: p53 gene; details: clinical tests

O=c1oc2c(O)c(O)cc3c(=O)oc4c(O)c(O)cc1c4c23 [ellagic acid]
effect on normal healthy cells [1]: no change | apoptosis (cell death) of cancer cells [2]: causes apoptosis | time to G-arrest (inhibiting and stopping mitosis-cancer cell division) [3]: ≤ 48 h | time to apoptosis (normal cell death) [3]: ≤ 72 h | effect on destruction of the p53 gene by cancer cells [4]: prevents the destruction of the p53 gene
